Test results published in patent publication US20230052453A1, “COMPOSITIONS AND METHODS FOR RELIEVING EFFECTS OF ALCOHOL CONSUMPTION” (MOXY DISTRIBUTION, INC., priority 2021, published 2023).

Key:
[1] = Blood alcohol content (BAC) of participants after alcoholic drinks; format: in vivo, human; conditions: half dose 30 minutes prior to drinking
Experimental: Participants were also administered a verbal processing test.
The differential in blood alcohol content between the participants receiving DHM and nicotinamide mononucleotide and emoxypine succinate and the participants in control group were substantial as show in Table 1.

[2] = cited from earlier work
[3] = system: alcohol dehydrogenase (ADH) and acetaldehyde dehydrogenase (ALDH); conditions: cited from earlier work

For O=C1c2c(O)cc(O)cc2O[C@H](c2cc(O)c(O)c(O)c2)[C@H]1O [DHM, (2R,3R)-3,5,7-trihydroxy-2-(3,4,5-trihydroxyphenyl)-2,3-dihydrochromen-4-one], the “MEAN BAC LEVELS” value ([1]; elapsed time 00 h 15 m, cumulative drinks 1) was 0.022%, the “MEAN BAC LEVELS” value ([1]; elapsed time 00 h 45 m, cumulative drinks 2) was 0.051% and the “MEAN BAC LEVELS” value ([1]; elapsed time 01 h 15 m, cumulative drinks 3) was 0.062%. The “MEAN BAC LEVELS” value ([1]; elapsed time 01 h 45 m, cumulative drinks 4) was 0.087%, the “MEAN BAC LEVELS” value ([1]; elapsed time 02 h 15 m, cumulative drinks 5) was 0.109% and the “MEAN BAC LEVELS” value ([1]; elapsed time 02 h 45 m, cumulative drinks 6) was 0.131%. The “time required to reach peak plasma concentration” value ([2]; after oral administration at a dose of 20 mg/kg) was 2.67 h, the “bioavailability after oral administration” value ([2]; rats, oral) was 4.02% and the “alcohol (EtOH) elimination” value ([3]; by increasing the activities of ADH and ALDH) was “promotes alcohol (EtOH) elimination”. The alcohol-induced liver injuries ([3]; in vivo) was “ameliorates alcohol-induced liver injuries”.
